From PubChem BioAssay AID1963836 (Molecular Pharmacology Branch, DTP, NCI, 2024)

Test system: 857933-349-R-J2-PDC complex spheroid viability
Experiment: Anticancer human tumor 857933-349-R-J2-PDC patient-derived colon adenocarcinoma cell line growth inhibition [POLQ]
Conditions: for IC50: curve of first compound; for viability, T/C: stronger effect = lower value
Method: Multicellular complex tumor spheroid response to Polymerase (POL) inhibitors (novobiocin, ART-558, RP6685) in combination with a variety of drugs and investigational agents in selected tumor cell lines
The POL inhibitors (novobiocin, ART-558, and RP6685) were evaluated both individually and in combination with standard of care and investigational anticancer small molecules within a complex spheroid model of solid tumors. . Complex spheroids include a stromal component modeled by human endothelial cells (HUVEC) and fibroblasts modeled by human mesenchymal stem cells (MSCs). The concentration ranges selected for each drug and investigational agent were based upon clinically achievable concentrations if the clinical Cmax of the agent was known.
Compounds. The drugs and investigational agents: novobiocin (NSC847541), ART-558 (NSC835418), RP-6685 (NSC848927), peposertib (NSC802822), ceralasertib (NSC780249), elimusertib (NSC800525), camonsertib (NSC841442), AZD-1390 (NSC803789), olaparib (NSC753686), talazoparib (NSC767125), rucaparib (NSC756644), sotorasib (NSC818433), MRTX-1133 (NSC836407), SN-38 (NSC673596), topotecan (NSC609699), epotoside (NSC141540), doxorubicin (NSC123127), gemcitabine (NSC613327), 5-fluorouracil (NSC19893), paclitaxel (NSC125973), vemurafenib (NSC761431), MSA-2 (NSC828583), SN-011 (NSC837082), adavosertib (NSC754352), prexasertib (NSC758257), carboplatin (NSC241240) and oxaliplatin (NSC266046), were obtained from the National Cancer Institute (NCI) Developmental Therapeutics Program Chemical Repository (21). The FDA-approved anticancer drug set is available from the Developmental Therapeutics Program at https://dtp.cancer.gov/organization/dscb/obtaining/. […] The stock solutions were prepared in dimethyl sulfoxide (DMSO, Sigma-Aldrich, St. Louis, MO, cat. D2650), except for the platinum compounds which were prepared in saline (Quality Biological, Gaithersburg, MD, cat. 114-055-101), at 800-fold the tested concentration and stored at -70 degrees C prior to their use. All drugs and investigational agents were tested over a range starting from a high concentration at or near the clinical Cmax and decreasing in half-log increments. If the clinical Cmax for an agent had not been determined, the highest concentration tested was 10 microM, except for SN-38, which was tested at a high concentration of 1 microM.
Cell Culture. All cells were maintained in an incubator at 37 degrees C and 5% CO2 with 95% humidity. The PDC lines were cultured according to standard operating procedures established by the NCI PDMR (https://pdmr.cancer.gov). Table 3 of the manuscript, lists the cell lines along with the number of the three cell types plated to form the mct-spheroids and media for tumor cell growth. After thawing, all PDC lines, except 997537-175-T-J1-PDC and 415267-285-R-J2-PDC, were cultured in Matrigel-coated flasks prepared with a working solution of 1X Ham's F-12 nutrient mix, without supplementation (Thermo Fisher Scientific, cat. 11765054), 100 U/mL penicillin-streptomycin (Thermo Fisher Scientific, cat. 15140122), and 2.5% Matrigel (Corning Inc., Corning, NY, cat. 354248) for the first three passages. The two PDC lines 997537-175-T-J1-PDC and 415267-285-R-J2-PDC were cultured on uncoated flasks. The 857933-349-R-J2-PDC line was cultured in 6C/Colon 1B media containing advanced DMEM/F-12 (Thermo Fisher Scientific, cat. 12634028), 10 mM HEPES (Thermo Fisher Scientific, cat. 15630080), 1X GlutaMAX supplement (Thermo Fisher Scientific, cat. 35050061), 0.1 mg/mL primocin (InvivoGen, San Diego, CA, cat. ant-pm-2), 10% defined fetal bovine serum, heat inactivated (HyClone Laboratories Inc., Logan, UT, cat. SH30070.03HI), 50% L-WRN conditioned media (ATCC, cat. CRL-3276), 1.25 mM N-Acetyl-L-cysteine (Sigma-Aldrich, cat. A9165), 10 mM nicotinamide (Sigma-Aldrich, cat. N0636), 1X B-27 supplement (Thermo Fisher Scientific, cat. 17504044), 1X N-2 supplement (Thermo Fisher Scientific, cat. […]

[1] = second compound 0.0316 µM, first compound 0.0316 µM
[2] = second compound 0.0316 µM, first compound 0.1 µM
[3] = second compound 0.0316 µM, first compound 0.316 µM
[4] = second compound 0.0316 µM, first compound 1 µM
[5] = second compound 0.0316 µM, first compound 3.16 µM
[6] = second compound 0.0316 µM, first compound 10 µM
[7] = second compound 0.1 µM, first compound 0.0316 µM
[8] = second compound 0.1 µM, first compound 0.1 µM
[9] = second compound 0.1 µM, first compound 0.316 µM
[10] = second compound 0.1 µM, first compound 1 µM
[11] = second compound 0.1 µM, first compound 3.16 µM
[12] = second compound 0.1 µM, first compound 10 µM
[13] = second compound 0.316 µM, first compound 0.0316 µM
[14] = second compound 0.316 µM, first compound 0.1 µM
[15] = second compound 0.316 µM, first compound 0.316 µM
[16] = second compound 0.316 µM, first compound 1 µM
[17] = second compound 0.316 µM, first compound 3.16 µM
[18] = second compound 0.316 µM, first compound 10 µM
[19] = second compound 1 µM, first compound 0.0316 µM
[20] = second compound 1 µM, first compound 0.1 µM
[21] = second compound 1 µM, first compound 0.316 µM
[22] = second compound 1 µM, first compound 1 µM
[23] = second compound 1 µM, first compound 3.16 µM
[24] = second compound 1 µM, first compound 10 µM
[25] = second compound 3.16 µM, first compound 0.0316 µM
[26] = second compound 3.16 µM, first compound 0.1 µM
[27] = second compound 3.16 µM, first compound 0.316 µM
[28] = second compound 3.16 µM, first compound 1 µM
[29] = second compound 3.16 µM, first compound 3.16 µM
[30] = second compound 3.16 µM, first compound 10 µM
[31] = second compound 10 µM, first compound 0.0316 µM
[32] = second compound 10 µM, first compound 0.1 µM
[33] = second compound 10 µM, first compound 0.316 µM
[34] = second compound 10 µM, first compound 1 µM
[35] = second compound 10 µM, first compound 3.16 µM
[36] = second compound 10 µM, first compound 10 µM
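Also: spheroids exposed to compounds for seven days before readout.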

COc1ccc([C@@H](O)c2cc(-c3ncnc4cc(N5CCOCC5)ccc34)c(F)cc2Cl)nn1 + COC1C(OC(N)=O)C(O)C(Oc2ccc3c(O)c(NC(=O)c4ccc(O)c(CC=C(C)C)c4)c(=O)oc3c2C)OC1(C)C
IC50 (second compound 0.0316 µM): > 10 µM
IC50 (second compound 0.1 µM): > 10 µM
IC50 (second compound 0.316 µM): > 10 µM
IC50 (second compound 1 µM): > 10 µM
IC50 (second compound 3.16 µM): > 10 µM
IC50 (second compound 10 µM): > 10 µM
viability, T/C [1]: 114%
viability, T/C [2]: 102%
viability, T/C [3]: 123%
viability, T/C [4]: 96.2%
viability, T/C [5]: 91.4%
viability, T/C [6]: 65.3%
viability, T/C [7]: 91.5%
viability, T/C [8]: 123%
viability, T/C [9]: 87%
viability, T/C [10]: 98.7%
viability, T/C [11]: 72%
viability, T/C [12]: 94.3%
viability, T/C [13]: 112%
viability, T/C [14]: 102%
viability, T/C [15]: 84.5%
viability, T/C [16]: 89.2%
viability, T/C [17]: 76.1%
viability, T/C [18]: 61.1%
viability, T/C [19]: 100%
viability, T/C [20]: 93.4%
viability, T/C [21]: 106%
viability, T/C [22]: 79.5%
viability, T/C [23]: 89.8%
viability, T/C [24]: 65.7%
viability, T/C [25]: 89.4%
viability, T/C [26]: 118%
viability, T/C [27]: 101%
viability, T/C [28]: 94.3%
viability, T/C [29]: 77.5%
viability, T/C [30]: 63.8%
viability, T/C [31]: 101%
viability, T/C [32]: 93.5%
viability, T/C [33]: 107%
viability, T/C [34]: 69.5%
viability, T/C [35]: 76.4%
viability, T/C [36]: 72.3%

O=C(Nc1ccc(O)c(NS(=O)(=O)c2ccc(F)cc2)c1)c1ccc(-c2ccccc2)cc1 + COC1C(OC(N)=O)C(O)C(Oc2ccc3c(O)c(NC(=O)c4ccc(O)c(CC=C(C)C)c4)c(=O)oc3c2C)OC1(C)C
IC50 (second compound 0.0316 µM): > 10 µM
IC50 (second compound 0.1 µM): > 10 µM
IC50 (second compound 0.316 µM): > 10 µM
IC50 (second compound 1 µM): > 10 µM
IC50 (second compound 3.16 µM): > 10 µM
IC50 (second compound 10 µM): > 10 µM
viability, T/C [1]: 70.1%
viability, T/C [2]: 105%
viability, T/C [3]: 92.3%
viability, T/C [4]: 89.2%
viability, T/C [5]: 80.7%
viability, T/C [6]: 78.6%
viability, T/C [7]: 116%
viability, T/C [8]: 95.9%
viability, T/C [9]: 94.1%
viability, T/C [10]: 92.3%
viability, T/C [11]: 114%
viability, T/C [12]: 101%
viability, T/C [13]: 96%
viability, T/C [14]: 85.5%
viability, T/C [15]: 65.9%
viability, T/C [16]: 65.5%
viability, T/C [17]: 113%
viability, T/C [18]: 84.1%
viability, T/C [19]: 79.5%
viability, T/C [20]: 91.1%
viability, T/C [21]: 81.1%
viability, T/C [22]: 72.9%
viability, T/C [23]: 109%
viability, T/C [24]: 80.7%
viability, T/C [25]: 101%
viability, T/C [26]: 86.9%
viability, T/C [27]: 113%
viability, T/C [28]: 99.2%
viability, T/C [29]: 85.3%
viability, T/C [30]: 61.5%
viability, T/C [31]: 76.2%
viability, T/C [32]: 88.7%
viability, T/C [33]: 99.8%
viability, T/C [34]: 82.8%
viability, T/C [35]: 77.9%
viability, T/C [36]: 68.8%
